Patent publication US11324825B2, “Synthetic retinoids (in cell modulation)” (University of Durham, priority 2016, dated 2022)

What was measured:
HaCaT cells [1] = experiment: Cell death on Zeiss 880 confocal, 405 nm laser light; format: cell-based, human; settings: 10 μM; for membrane blebbing on repeated exposures to 405 nm laser: up to 47 exposures
Method: One day prior to imaging, HaCaT cells (4000 approx.) were seeded into each well of an 8 well glass slide. Cells were allowed to incubate overnight in serum containing media. One hour before imaging the normal media was replaced with compound containing media, 1 mL per well. The cells were imaged in a 37° C. heated chamber using the Zeiss LSM 880 with Airyscan confocal laser scanning microscope. Note: Cells were imaged in DMEM media which contains phenol red.
Images of 10 μM compound treated cells were taken every twenty minutes and at each time point a treatment of 405 nm light at 50% laser strength was applied.

HaCaT cells [2] = experiment: Cell death on Zeiss Live Cell Observer after UV light; format: cell-based
Method: (§1) One day prior to imaging, HaCaT or J2 cells (20,000 approx.) were seeded into each well of a 6 well or 24 well plastic plate. Cells were allowed to incubate overnight in serum containing media. One to four hours before imaging the normal media was replaced with compound containing media, 1 mL per well. The cells were imaged in a 37° C. heated chamber and supplied with 5% CO2. Zeiss Live Cell Observer microscope: OSRAM 1×HBO 103 W/2 100 Watt Mercury Bulb, DAPI Excitation filter=335-385 nm, DAPI Emission filter=420-470 nm. Note: Cells were imaged in DMEM media which contains phenol red.

HaCaT cells [3] = experiment: ROS staining (Superoxide Detection Reagent, CellRox); format: cell-based, human; settings: for superoxide stain fluorescence after UV exposure: UV treatment, rhodamine filter, 60-260 seconds after UV
Method: One day prior to imaging, HaCaT cells (20,000 approx) were seeded into each well of a 24 well plastic plate. Cells were allowed to incubate overnight in serum containing media. Three hours prior to imaging, the media in each well was replaced with fresh serum containing media which included a 1:500 dilution of Superoxide Detection Reagent, CellRox. […] The cells were incubated with the ROS stain at 37° C. for one hour. An hour and a half before imaging, the media in the negative control well was replaced with N-acetyl-L-cysteine diluted in serum containing media (1 mL, 10 mM). One hour before imaging the media in all but one of the other wells was replaced with compound containing media, 1 mL per well. Thirty minutes prior to imaging, the media in the positive control well was replaced with pyocyanine diluted in serum containing media (1 mL, 500 μM). Pyocyanine induces ROS within 20-30 minutes. The cells were imaged in a heated chamber and supplied with 5% CO2. The cells were imaged in a 37° C. heated chamber using the Zeiss LSM 880 with Airyscan confocal laser scanning microscope. Cells were irradiated with 405 nm laser to activate compounds and ROS dye was excited with 633 nm laser Note: Cells were imaged in DMEM media which contains phenol red.
In order to gain more insight into the mode of action leading to cell death, we examined the photo-initiated ROS production using the redox reactive dye, CellRox, which fluoresces in response to oxidation by reactive oxygen species.

[4] = system: J2 cells, a mouse fibroblast cell line; experiment: Cell death on Zeiss Live Cell Observer after UV light, J2 cells; format: cell-based
Method: as §1
Referring to FIG. 6: Cell death observations were consistent across different cell lines. […] A 10× objective lens at Phase 0 was used.

HaCaT cells [5] = experiment: Dose response of cell death after 10 s UV (time lapse imaging); settings: Homo sapiens, light or radiation study, 10 seconds of UV (DAPI filter, 20× objective), 24 hours after initial irradiation, read-out: EC50 based on average viable fraction of the cellular population
Method: The speed of death was tested at a number of concentrations in order to determine an estimate for the EC50 (half maximal effective concentration) value. Morphological changes were recorded using time lapse imaging at 5 minute intervals. The time taken between 10 s of UV light treatment and the first sign of damage to the cell membranes was recorded. Each cell in the field of view was treated as an individual data point, before taking an average of the time for each concentration.
Referring to FIG. 12: The dose-dependent response of HaCaT cells treated with DC324 and DC473 and 10 seconds of UV. UV exposure was administered through the DAPI filter and a 20× objective lens, phase 0.

[6] = Absorbance and emission spectra; format: physicochemical; settings: in chloroform
Method: FIG. 18 illustrates the combined normalised absorbance spectra of DC324, DC473 and DC474 in CHCl3 (10 μM);
FIG. 19 illustrates the combined normalised emission spectra of DC324, DC473 and DC474 in CHCl3 (100 nM) with excitation at their respective maximal absorption wavelengths;

SMILES	membrane blebbing on repeated exposures to 405 nm laser (HaCaT cells [1]; 405 nm laser at 50% strength)	membrane blebbing and cell death following exposure to UV light (initial screening) (HaCaT cells [2]; UV light)	superoxide stain fluorescence after UV exposure (HaCaT cells [3])	EC50 (HaCaT cells [5]) [nM]	Absorbance wavelength max [6] [max nm]	Absorbance wavelength range [6]	also measured
CC1=C(/C=C/C(C)=C/C=C/C(C)=C/C(=O)O)C(C)(C)CCC1 [ATRA, All Trans-Retinoic Acid, reference compound]	No membrane blebbing was observed	no membrane blebbing was observed	produced an increased level of fluorescence post exposure to UV	–	–	–	–
CC(C)N1CCC(C)(C)c2cc(C#Cc3ccc(/C=C/C(=O)O)cc3)ccc21 [DC324, (2E)-3-(4-2-[4,4-Dimethyl-1-(propan-2-yl)-1,2,3,4-tetrahydroquinolin-6-yl]ethynylphenyl)prop-2-enoic Acid]	Membrane blebbing was induced	induced membrane blebbing and cell death	indicates superoxide production	200	400	275-475 range nm	UV untreated cells in the compound, same well as treated area ([4]; no UV): appear healthy after 26 hours; membrane blebbing after a single UV treatment ([4]; single UV treatment, 10× objective lens, Phase 0): displayed membrane blebbing within two hours; number of exposures until first bleb appeared (HaCaT cells [1]; 405 nm laser at 50% strength): 21 exposures; type of cell death induced by 405 nm light (HaCaT cells [1]; 405 nm laser at 50% strength): more characteristic of apoptosis than the cell death caused by UV light; cell death under 405 nm laser light versus DMSO control (HaCaT cells [1]; 405 nm light at 50% laser strength every twenty minutes): significantly different to the DMSO control; cells from the same well away from the site of UV exposure (HaCaT cells [2]; 10 μM, no UV exposure): healthy cells; time to necrosis after UV treatment (HaCaT cells [2]; 10 μM, single 10 s treatment with UV light, 10× objective lens, Phase 0): within two hours; speed of cell death induction compared with other compounds (HaCaT cells [2]; UV light): most rapid inducer of cell death; Emission wavelength max ([6]; excitation at 400 nm): 560 max nm; Emission wavelength range ([6]; excitation at 400 nm): 450-700 range nm; CellRox (ROS-stimulated) relative fluorescence after irradiation (HaCaT cells [3]; 405 nm light, before vs after irradiation): steady increase
C#CCN1CCC(C)(C)c2cc(C#Cc3ccc(/C=C/C(=O)OC)cc3)ccc21 [DC473]	–	induced membrane blebbing and cell death	–	180	380	275-450 range nm	Emission wavelength max ([6]; excitation at 380 nm): 520 max nm; Emission wavelength range ([6]; excitation at 380 nm): 440-680 range nm
C#CCN1CCC(C)(C)c2cc(C#Cc3ccc(/C=C/C(=O)O)cc3)ccc21 [DC474, (2E)-3-(4-{2-[4,4-Dimethyl-1-(prop-2-yn-1-yl)-1,2,3,4-tetrahydroquinolin-6-yl]ethynyl}phenyl)prop-2-enoic Acid]	–	–	–	–	380	275-450 range nm	melting point: 193 to 195 °C (dec.); Emission wavelength max ([6]; excitation at 300 nm): 540 max nm; Emission wavelength range ([6]; excitation at 300 nm): 450-700 range nm
CC1(C)CCC(C)(C)c2cc(C#Cc3ccc(C(=O)O)cc3)ccc21 [EC23, reference compound]	–	no membrane blebbing was observed	–	–	–	–	–
